# Patent publication US10428083B2, “Heterocyclylmethyl-thienouracile as antagonists of the adenosine-A2B-receptor” (BAYER PHARMA AKTIENGESELLSCHAFT, priority 2015, dated 2019)
# Biological target: human adenosine A2b receptor (Homo sapiens (Human), UniProt P29275)
# Experiment: Cellular in vitro reporter gene test for A2b receptor activity (CHO-K1, CRE-luciferase, NECA stimulation)
# Format: cell-based
# Details: recombinant CHO-K1 cell line, CRE-luciferase reporter, antagonism of EC50 concentration of NECA; in some cases means of several determinations, rounded to two significant figures; read-out: A2b receptor IC50
# How it was run: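 CHO-K1 cells with CRE-driven luciferase; antagonists co-incubated with NECA at its EC50, determined in a pre-experiment on each test day. Luciferase read by luminescence 3 h after NECA addition.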
# Chain of human adenosine A2b receptor (P29275 whole entry): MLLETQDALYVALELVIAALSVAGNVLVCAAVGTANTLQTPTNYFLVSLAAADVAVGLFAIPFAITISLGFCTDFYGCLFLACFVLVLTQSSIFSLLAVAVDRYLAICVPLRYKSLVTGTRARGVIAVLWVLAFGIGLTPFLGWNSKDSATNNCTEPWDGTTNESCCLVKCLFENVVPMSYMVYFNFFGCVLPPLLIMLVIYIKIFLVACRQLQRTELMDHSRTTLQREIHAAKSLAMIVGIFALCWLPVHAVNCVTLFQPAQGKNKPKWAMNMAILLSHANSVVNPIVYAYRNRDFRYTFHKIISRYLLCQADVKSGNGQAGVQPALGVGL
row,SMILES,IC50 [nM]
1,"COCCn1c(=O)n(C(C)COC)c(=O)c2c(C)c(CN3CCNC3=O)sc21 (racemic) [Example 329, 1-(2-Methoxyethyl)-3-(1-methoxypropan-2-yl)-5-methyl-6-[(2-oxoimidazolidin-1-yl)methyl]thieno[2,3-d]pyrimidine-2,4(1H,3H)-dione]",900
2,"C=CCn1cnn(Cc2sc3c(c2C)c(=O)n(CC)c(=O)n3CF)c1=O [Example 349, 6-[(4-Allyl-5-oxo-4,5-dihydro-1H-1,2,4-triazol-1-yl)methyl]-3-ethyl-1-(fluoromethyl)-5-methylthieno[2,3-d]pyrimidine-2,4(1H,3H)-dione]",630
3,"CCn1c(=O)c2c(C)c(CN3CCNC(=O)C3=O)sc2n(CCCOC)c1=O [Example 396, 6-[(2,3-Dioxopiperazin-1-yl)methyl]-3-ethyl-1-(3-methoxypropyl)-5-methylthieno[2,3-d]pyrimidine-2,4(1H,3H)-dione]",93
4,"CCn1c(=O)c2c(C)c(CN3CCNC3=NC(=O)OC)sc2n(CC2CCO2)c1=O (racemic) [Example 371, Methyl [1-{[3-ethyl-5-methyl-1-(oxetan-2-ylmethyl)-2,4-dioxo-1,2,3,4-tetrahydrothieno[2,3-d]pyrimidin-6-yl]methyl}imidazolidin-2-ylidene]carbamate]",9.8
5,"[2H]C([2H])(c1sc2c(c1C)c(=O)n(CC)c(=O)n2CCOC)N1CCNC1=O [Example 415, 3-Ethyl-1-(2-methoxyethyl)-5-methyl-6-[(2-oxoimidazolidin-1-yl)(dideutero)methyl]thieno[2,3-d]pyrimidine-2,4(1H,3H)-dione]",9
6,"CCn1c(=O)c2c(C)c(CN3CCNC3=O)sc2n(CC2CCOC2)c1=O (single isomer, unassigned; enantiomer 2) [Example 75, 3-Ethyl-5-methyl-6-[(2-oxoimidazolidin-1-yl)methyl]-1-(tetrahydrofuran-3-ylmethyl)thieno[2,3-d]pyrimidine-2,4(1H,3H)-dione (Enantiomer 2)]",40
7,"C=CCn1cnn(Cc2sc3c(c2C)c(=O)n(CC)c(=O)n3CCOC(F)(F)F)c1=O [Example 111, 6-[(4-Allyl-5-oxo-4,5-dihydro-1H-1,2,4-triazol-1-yl)methyl]-3-ethyl-5-methyl-1-[2-(trifluoromethoxy)ethyl]thieno[2,3-d]pyrimidine-2,4(1H,3H)-dione]",21
8,"Cc1c(CN2CCNC2=S)sc2c1c(=O)n(CC(F)(F)F)c(=O)n2CC1CCO1 (single isomer, unassigned) [Example 156, 5-Methyl-1-(oxetan-2-ylmethyl)-6-[(2-thioxoimidazolidin-1-yl)methyl]-3-(2,2,2-trifluoroethyl)thieno[2,3-d]pyrimidine-2,4(1H,3H)-dione]",5.7
9,"Cc1c(CN2CCNC2=O)sc2c1c(=O)n(CC(C)(C)C)c(=O)n2CC1CCCO1 (racemic) [Example 406, 3-(2,2-Dimethylpropyl)-5-methyl-6-[(2-oxoimidazolidin-1-yl)methyl]-1-(tetrahydrofuran-2-ylmethyl)thieno[2,3-d]pyrimidine-2,4(1H,3H)-dione]",29
10,"Cc1c(CN2CCNC2=S)sc2c1c(=O)n(CC(C)C)c(=O)n2CC1CCO1 (racemic) [Example 146, 3-Isobutyl-5-methyl-1-(oxetan-2-ylmethyl)-6-[(2-thioxoimidazolidin-1-yl)methyl]thieno[2,3-d]pyrimidine-2,4(1H,3H)-dione]",11
11,"CCn1c(=O)c2c(C)c(CN3CCNC3=NC(=O)OC)sc2n(CCC(F)(F)F)c1=O [Example 370, Methyl [1-{[3-ethyl-5-methyl-2,4-dioxo-1-(3,3,3-trifluoropropyl)-1,2,3,4-tetrahydrothieno[2,3-d]pyrimidin-6-yl]methyl}imidazolidin-2-ylidene]carbamate]",2
12,"Cc1c(CN2CCNC2=O)sc2c1c(=O)n(CC(F)(F)F)c(=O)n2CC1CCCO1 (racemic) [Example 209, 5-Methyl-6-[(2-oxoimidazolidin-1-yl)methyl]-1-(tetrahydrofuran-2-ylmethyl)-3-(2,2,2-trifluoroethyl)thieno[2,3-d]pyrimidine-2,4(1H,3H)-dione]",12
13,"Cc1c(CN2CCNC2=NC#N)sc2c1c(=O)n(C(C)C)c(=O)n2CC1CCCO1 (single isomer, unassigned) [Example 356, [1-{[3-Isopropyl-5-methyl-2,4-dioxo-1-(tetrahydrofuran-2-ylmethyl)-1,2,3,4-tetrahydrothieno[2,3-d]pyrimidin-6-yl]methyl}imidazolidin-2-ylidene]cyanamide]",5.1
14,"COC(=O)N=C1NCCN1Cc1sc2c(c1C)c(=O)n(CC(F)(F)F)c(=O)n2CC1CCCO1 (racemic) [Example 384, Methyl [1-{[5-methyl-2,4-dioxo-1-(tetrahydrofuran-2-ylmethyl)-3-(2,2,2-trifluoroethyl)-1,2,3,4-tetrahydrothieno[2,3-d]pyrimidin-6-yl]methyl}imidazolidin-2-ylidene]carbamate]",9.8
15,"Cc1c(Cn2[nH]ccc2=O)sc2c1c(=O)n(C(C)C)c(=O)n2CC1CCCO1 (racemic) [Example 134, 3-Isopropyl-5-methyl-6-[(5-oxo-2,5-dihydro-1H-pyrazol-1-yl)methyl]-1-(tetrahydrofuran-2-ylmethyl)thieno[2,3-d]pyrimidine-2,4(1H,3H)-dione]",30
16,"COCCn1c(=O)c2c(C)c(CN3CCNC3=NC(=O)OC)sc2n(CC2CCCO2)c1=O (single isomer, unassigned) [Example 392, Methyl [1-f{[3-(2-methoxyethyl)-5-methyl-2,4-dioxo-1-(tetrahydrofuran-2-ylmethyl)-1,2,3,4-tetrahydrothieno[2,3-d]pyrimidin-6-yl]methyl}imidazolidin-2-ylidene]carbamate]",56
17,"CCn1c(=O)c2c(C)c(CN3CCNC3=S)sc2n(CCOC2CC2)c1=O [Example 138, 1-[2-(Cyclopropyloxy)ethyl]-3-ethyl-5-methyl-6-[(2-thioxoimidazolidin-1-yl)methyl]thieno[2,3-d]pyrimidine-2,4(1H,3H)-dione]",12
18,"Cc1c(CN2CCNC2=S)sc2c1c(=O)n(CC(F)F)c(=O)n2CCCF [Example 42, 3-(2,2-Difluoroethyl)-1-(3-fluoropropyl)-5-methyl-6-[(2-thioxoimidazolidin-1-yl)methyl]thieno[2,3-d]pyrimidine-2,4(1H,3H)-dione]",11
19,"CCn1c(=O)c2c(C)c(CN3CCNC3=O)sc2n(CC(F)(F)F)c1=O [Example 47, 3-Ethyl-5-methyl-6-[(2-oxoimidazolidin-1-yl)methyl]-1-(2,2,2-trifluoroethyl)thieno[2,3-d]pyrimidine-2,4(1H,3H)-dione]",14
20,"COCCn1c(=O)c2c(C)c(Cn3cc[nH]c3=O)sc2n(CC2CCCO2)c1=O (racemic) [Example 346, 3-(2-Methoxyethyl)-5-methyl-6-[(2-oxo-2,3-dihydro-1H-imidazol-1-yl)methyl]-1-(tetrahydrofuran-2-ylmethyl)thieno[2,3-d]pyrimidine-2,4(1H,3H)-dione]",37
21,"COC(C)Cn1c(=O)c2c(C)c(CN3CCNC3=O)sc2n(CCC(F)(F)F)c1=O (racemic) [Example 412, 3-(2-Methoxypropyl)-5-methyl-6-[(2-oxoimidazolidin-1-yl)methyl]-1-(3,3,3-trifluoropropyl)thieno[2,3-d]pyrimidine-2,4(1H,3H)-dione]",5.4
22,"CCn1c(=O)c2c(C)c(CN3CCNC3=O)sc2n(CC#N)c1=O [Example 81, {3-Ethyl-5-methyl-2,4-dioxo-6-[(2-oxoimidazolidin-1-yl)methyl]-3,4-dihydrothieno[2,3-d]pyrimidin-1 (2H)-yl}acetonitrile]",14
23,"COCCn1c(=O)n(CC(C)(C)F)c(=O)c2c(C)c(CN3CCNC3=O)sc21 [Example 226, 3-(2-Fluoro-2-methylpropyl)-1-(2-methoxyethyl)-5-methyl-6-[(2-oxoimidazolidin-1-yl)methyl]thieno[2,3-d]pyrimidine-2,4(1H,3H)-dione]",36
24,"COCCn1c(=O)n(CC(F)(F)F)c(=O)c2c(C)c(CN3CCNC(=O)C3=O)sc21 [Example 486, 6-[(2,3-Dioxopiperazin-1-yl)methyl]-1-(2-methoxyethyl)-5-methyl-3-(2,2,2-trifluoroethyl)thieno[2,3-d]pyrimidine-2,4(1H,3H)-dione]",190
25,"Cc1c(Cn2nc[nH]c2=O)sc2c1c(=O)n(CC(F)(F)F)c(=O)n2CC1CCCO1 (single isomer, unassigned) [Example 435, 5-Methyl-6-[(5-oxo-4,5-dihydro-1H-1,2,4-triazol-1-yl)methyl]-1-(tetrahydrofuran-2-ylmethyl)-3-(2,2,2-trifluoroethyl)thieno[2,3-d]pyrimidine-2,4(1H,3H)-dione]",43
26,"Cc1c(Cn2nc[nH]c2=O)sc2c1c(=O)n(CC(C)(C)C)c(=O)n2CC1CCCO1 (racemic) [Example 429, 3-(2,2-Dimethylpropyl)-5-methyl-6-[(5-oxo-4,5-dihydro-1H-1,2,4-triazol-1-yl)methyl]-1-(tetrahydrofuran-2-ylmethyl)thieno[2,3-d]pyrimidine-2,4(1H,3H)-dione]",75
27,"COCCn1c(=O)n(C(C)C(F)(F)F)c(=O)c2c(C)c(CN3CCNC3=NC#N)sc21 (racemic) [Example 452, [1-{[1-(2-Methoxyethyl)-5-methyl-2,4-dioxo-3-(1,1,1-trifluoropropan-2-yl)-1,2,3,4-tetrahydrothieno[2,3-d]pyrimidin-6-yl]methyl}imidazolidin-2-ylidene]cyanamide]",14
28,"Cc1c(CN2CCNC2=O)sc2c1c(=O)n(CC(C)(C)O)c(=O)n2CCC(F)(F)F [Example 227, 3-(2-Hydroxy-2-methylpropyl)-5-methyl-6-[(2-oxoimidazolidin-1-yl)methyl]-1-(3,3,3-trifluoropropyl)thieno[2,3-d]pyrimidine-2,4(1H,3H)-dione]",22
